{
  "source": "patent US20170369887A1",
  "about": "“Therapeutic compositions for breast cancer containing protein kinase D1 inhibitor” (SOOKMYUNG WOMEN'S UNIVERSITY INDUSTRY ACADEMIC COOPERATION …, priority 2016, published 2017)",
  "key": {"[1]": {"test_system": "MCF-7-ADR cells", "assay": "Cell survival rate, WST-8 assay, MCF-7-ADR", "type": "cell-based, human", "protocol": "[…] Cell survival rate was analyzed by WST-8 assay (Sigma-Aldrich) and an optical density was measured at 450 nm using a microplate reader."}, "[2]": {"test_system": "MCF-7-ADR cells", "assay": "Annexin V and propidium iodide (PI) staining", "type": "cell-based, human", "conditions": "FIG. 4E"}, "[3]": {"test_system": "GSK3/β-catenin signaling", "assay": "Western blot of PKD/PKCμ phosphorylation and GSK3/β-catenin signaling in MCF-7-ADR cells", "type": "cell-based, human", "conditions": "1 μM or 5 μM, FIG. 3A", "protocol": "CRT0066101 was purchased from R&D Systems (Minneapolis, Minn., USA); this drug was resuspended in sterile distilled water and used for in vivo studies. To treat CRT0066101, MCF-7-ADR cells (American Type Culture Collection, Manassas, Va., USA) were seeded and 0.1 to 10 μM CRT0066101 was added and incubated for 1 hour. WST-8 was purchased from Enzo Life Sciences, Inc. (Farmingdale, N.Y., USA). PRKD1 siRNA and scrambled siRNA (Santa Cruz Biotechnology, Santa Cruz, Calif., USA) were transfected by using Lipofectamine RNAiMAX (Invitrogen, Carlsbad, Calif., USA).\n(§1) A total of 30 μg of a protein extract was isolated by 8% SDS-PAGE and the protein was electrophoretically transferred to a PVDF membrane. The primary antibodies used were phosphorylated PKD/PKCμ (Ser916), GSK3β, phosphorylated GSK3α (Ser21)/β (Ser9), and β-catenin. These antibodies were purchased from Cell Signaling Technology (Danvers, Mass., USA) and the PKD/PKCμ antibody was purchased from Santa Cruz Biotechnology. (β-actin (Bethyl Laboratories, Montgomery, Tex., USA) was used as a loading control. The membrane was washed with 1×PBS/0.1% Tween 20 and the bound proteins were detected with an enhanced chemiluminescent reagent (Amersham Pharmacia Biotech, Parsippany, N.J., USA)."}, "[4]": {"test_system": "GSK3/β-catenin signaling", "assay": "Western blot of GSK3/β-catenin signaling in MCF-7 cells", "type": "cell-based, human", "conditions": "FIG. 12A", "protocol": "as §1"}, "[5]": {"test_system": "MCF-7-ADR cells", "assay": "Tumorsphere formation assay (TSA)", "type": "cell-based, human", "conditions": "1 μM or 5 μM, vs control, FIG. 3B", "protocol": "For incubation of tumorspheres, cells (2000 cells/mL) were suspended and incubated in serum-free DMEM/F12 (welGENE) containing 1% penicillin, B27 (1:50; Gibco; Thermo Fisher), 20 ng/mL of an epidermal growth factor (Prospec, East Brunswick, N.J., (WelGENE) […] of insulin (Sigma-Aldrich, St. Louis, Mo., USA) and 0.4% bovine serum albumin (Sigma-Aldrich). After about 10 days, the plate was analyzed and formation of tumorspheres was verified and quantified with a microscope (Olympus IX71; Olympus, Tokyo, Japan). In order to count the number of tumorspheres, MCF-7-ADR cells were filtered and quantified by a strainer (BD Biosciences, East Rutherford, N.J., USA) having a pore size of 70 μm. Treatment with CRT0066101 was performed on 6-th day and 8-th day after incubation."}, "[6]": {"test_system": "MCF-7-ADR cells", "assay": "CD44+/CD24− surface marker analysis using flow cytometry", "type": "cell-based, human", "conditions": "1 μM, FIG. 3C", "protocol": "Cells were collected after transfection with RNAi of PRKD1 or CRT0066101 treatment and expression of CD44 +/CD24-surfaces was evaluated. The cells were washed with 2% FBS, stained with anti-CD44 (APC-conjugated; BD Biosciences) and anti-CD24 (BD Biosciences) in a PBS containing 2% FBS, and placed on ice in the dark for 30 minutes. The cells were washed again with a cold PBS buffer, loaded with >10,000 cells in a BD CantoII flow cytometer (BD Biosciences), and then analyzed by flow cytometry using FACSDiVa software (BD Biosciences)."}, "[7]": {"test_system": "MCF-7 cells", "assay": "Cell survival rate, WST-8 assay, MCF-7", "type": "cell-based, human", "conditions": "0.1 to 5 μM, FIG. 12B"}, "[8]": {"test_system": "MCF-7-ADR cells", "assay": "MCF-7-ADR xenograft in nude mice treated with CRT0066101", "type": "in vivo, mouse", "protocol": "A control or miR-32a overexpressed tumor and a carrier or CRT0066101 treated tumor were cut and paraffin-treated slides were used. The paraffin was removed from the slides, rehydrated 3 to 4 times in Histoclear, and then passed sequentially through ethanol at different concentrations (100%, 95%, 80%, and 70%). Antigen reconstitution was performed by immersing fragments in a 0.01M citric acid solution (pH 6.0) and boiling the fragments in a microwave for 15 minutes. In the case of TUNEL analysis, an in-situ apoptosis detection kit, a fluorescent material (Roche, Indianapolis, USA) labeled apoptotic cells, and a Ki-67 primary antibody (Vector Lab, USA) were applied to the fragments and incubated at 4° C. overnight. Thereafter, the slides were incubated with DAPI and secondary antibody for two hours. Finally, the slides were treated with a mounting solution (Dako) and a photograph was taken with a confocal microscope (Zeiss).\nAll studies, including the use of nude mice, were approved by the committee on animal protection and use of the Yonsei University Medical center (2015-0087) and performed under conditions according to facilities without specific pathogens and the guideline of the committee. Mice were anesthetized with 150 μl saline/zoletil/rompun (7:1:1) outside each femoral region and subcutaneously injected with 1.5×10^6 of MCF-7-ADR cells. Six mice were randomly grouped and started to be treated from 10-th day after tumor graft. […] The tumor size was measured every 3 to 4 days using a caliper from formation of touched tumor to termination and the tumor volume was calculated by Equation of length×width^2×0.5236. The mice were sacrificed in a 7.5% CO2 chamber and tumors were isolated and used for immunohistochemistry and other assays."}, "[9]": {"target": "T1, PRKD1 autophosphorylation (Homo sapiens, UniProt Q15139)", "T1 sequence (Q15139 1-912)": "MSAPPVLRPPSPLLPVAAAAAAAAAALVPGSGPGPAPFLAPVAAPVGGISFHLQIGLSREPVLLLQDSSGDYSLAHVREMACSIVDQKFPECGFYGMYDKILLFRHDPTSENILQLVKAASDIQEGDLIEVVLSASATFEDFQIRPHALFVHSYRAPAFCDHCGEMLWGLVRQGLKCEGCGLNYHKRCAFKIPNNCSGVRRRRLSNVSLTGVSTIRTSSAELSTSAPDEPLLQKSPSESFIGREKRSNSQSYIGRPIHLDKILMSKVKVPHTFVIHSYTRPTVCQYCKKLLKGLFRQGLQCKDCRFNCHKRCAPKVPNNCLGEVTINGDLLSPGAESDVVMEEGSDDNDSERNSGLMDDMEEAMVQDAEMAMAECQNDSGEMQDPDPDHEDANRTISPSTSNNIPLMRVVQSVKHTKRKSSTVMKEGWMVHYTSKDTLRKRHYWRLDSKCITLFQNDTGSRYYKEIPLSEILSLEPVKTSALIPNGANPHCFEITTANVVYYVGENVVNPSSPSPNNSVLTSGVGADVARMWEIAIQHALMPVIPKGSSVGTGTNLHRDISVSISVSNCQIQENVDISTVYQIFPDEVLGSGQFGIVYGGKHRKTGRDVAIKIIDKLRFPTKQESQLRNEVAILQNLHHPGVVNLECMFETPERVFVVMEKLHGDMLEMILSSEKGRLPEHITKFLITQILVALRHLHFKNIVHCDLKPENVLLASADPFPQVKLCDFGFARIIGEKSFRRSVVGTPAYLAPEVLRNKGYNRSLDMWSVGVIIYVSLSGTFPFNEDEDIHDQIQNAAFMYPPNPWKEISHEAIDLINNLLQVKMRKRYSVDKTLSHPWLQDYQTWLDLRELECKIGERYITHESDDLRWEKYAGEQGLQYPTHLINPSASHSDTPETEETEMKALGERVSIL", "conditions": "reference [16]; cited from earlier work"}, "[10]": {"conditions": "treated tumor vs control, FIG. 5G"}},
  "data": [
    {"molecule": "COc1cccc2c1C(=O)c1c(O)c3c(c(O)c1C2=O)C[C@@](O)(C(=O)CO)C[C@@H]3O[C@H]1C[C@H](N)[C@H](O)[C@H](C)O1", "note": "[doxorubicin]", "values": [
      {"measurement": "cell survival rate", "setting": "[1]; MCF-7-ADR cells exposed to doxorubicin at different doses, FIG. 4A", "result": "reduced dose-dependently"},
      {"measurement": "initiation of apoptosis", "setting": "[2]; treated cells vs control", "result": "increased"}
    ]},
    {"molecule": "CC[C@@H](N)CNc1ccnc(-c2cc(-c3cnn(C)c3)ccc2O)n1.Cl.Cl", "note": "[CRT0066101]", "values": [
      {"measurement": "phosphorylation of PKD/PKCμ and GSK3/β-catenin", "setting": "[3]", "result": "inhibited"},
      {"measurement": "GSK3/β-catenin signaling", "setting": "[4]", "result": "not affected"},
      {"measurement": "number of tumorspheres (>70 μm)", "setting": "[5]", "result": "decreased dose-dependently"},
      {"measurement": "number (Q1) of CD44+/CD24−", "setting": "[6]", "result": "also decreased"},
      {"measurement": "cell survival rate", "setting": "[1]; MCF-7-ADR cells, 0.1 to 5 μM, FIG. 4C", "result": "decreased cell survival rate dose-dependently"},
      {"measurement": "cell survival rate, combination with doxorubicin", "setting": "[1]; MCF-7-ADR, CRT0066101 combined with doxorubicin, vs CRT0066101 alone, FIG. 4D", "result": "significantly lowered"},
      {"measurement": "cell survival rate", "setting": "[7]", "result": "did not decrease"},
      {"measurement": "level of apoptosis in doxorubicin-treated cells", "setting": "[2]; CRT0066101 added to doxorubicin-treated cells", "result": "increased"},
      {"measurement": "side effects (sign of toxicity, weight loss)", "setting": "[8]; 65 mg/kg daily for 4 weeks, all animals, FIG. 5E", "result": "did not cause side effects"},
      {"measurement": "tumor size", "setting": "[8]; 65 mg/kg daily for 4 weeks, oral, vs untreated control, FIG. 5D", "result": "reduced"},
      {"measurement": "tumor weight", "setting": "[8]; 65 mg/kg daily for 4 weeks, vs control tumor, FIG. 5E", "result": "reduced"},
      {"measurement": "change in mouse's weight", "setting": "[8]; 65 mg/kg orally daily for 4 weeks, FIG. 5E", "result": "not detected"},
      {"measurement": "volume of tumor", "setting": "[8]; 65 mg/kg orally daily for 4 weeks, vs control tumor, FIG. 5E", "result": "reduced"},
      {"measurement": "apoptosis in tumor, TUNEL analysis", "setting": "[8]; [10]", "result": "apoptosis increased"},
      {"measurement": "proliferation in tumor, Ki-67 staining", "setting": "[8]; [10]", "result": "proliferation decreased"},
      {"measurement": "phosphorylated PKD/PKCμ through GSK3/β-catenin signaling in tumor", "setting": "[8]; western blot of tumor, FIG. 5F", "result": "down regulation"},
      {"measurement": "growth of pancreatic cancer", "setting": "[9]", "result": "blocked growth"}
    ]}
  ]
}
